US7033829B2, “Method to inhibit cell growth using oligonucleotides” (Trustees of Boston University, priority 2000, dated 2006)
Oligonucleotides are written 5' to 3', each unit as a sugar letter and its base; * is a phosphorothioate linkage, no mark a phosphodiester; rarer units and linkages stand in square brackets, end groups in braces. Plain capitals give the bases only. d = 2'-deoxy (DNA); {P} = phosphate

Experiments:
NBS fibroblasts = assay: FACS analysis of NBS fibroblasts; type: cell-based, human; conditions: 40 μM
Method: Fibroblasts were obtained from an NBS (Nijmegen breakage syndrome) patient, in which p95/Nbs1 was below the level of detection. Preconfluent cultures or normal (control) fibroblasts and NBS fibroblasts were treated with 40 μM of the oligonucleotides and collected after 48 hours for FACS analysis (FIGS. 34A–34H). The averages and standard deviations were calculated from triplicate cultures of each condition. FACS profiles from one representative experiment of three are shown.

[1] = system: Human cervical carcinoma cells (HeLa cells); assay: Cell growth of HeLa cells; type: cell-based; conditions: 100 μM; 1, 4 and 6 days after dosage
Method: Human cervical carcinoma cells (HeLa cells) were maintained in DME+10% calf serum and dosed with either water (diluent) or 100 μM T2. Cells were collected 1, 4 and 6 days after dosage and counted by Coulter™ counter.

[2] = system: pCMV-Luc plasmid in human newborn fibroblasts; assay: Repair of singlet oxygen-damaged pCMV-Luc plasmid in fibroblasts; type: cell-based; conditions: 100 μM 48 hours
Method: The plasmid pCMV-Luc is a non-replicating vector containing a reporter gene, luciferase, under the control of a strong constitutive cytomegalovirus promoter (gift of Dr. Hedayati, Johns Hopkins University). Singlet oxygen-induced DNA damage of the plasmid was generated by irradiating the plasmid with visible light for different time intervals (0 min, 10 min and 20 min), in the presence of the photosensitizer methylene blue. Fibroblasts (human newborn), pretreated for 48 hours with 100 μM pTpT or with diluent alone, were transfected with 0.5 μg of pCMV-Luc using Lipofect Aminem (Promega, Madison, Wis.). After two days, plasmid-encoded luciferase activity was determined in cell extracts (Promega luciferase assay). Pretreatment with pTpT enhanced the repair of singlet oxygen-induced DNA damage after […] by 179% and 228% respectively. FIG. 26 represents luciferase activity as a percent of luciferase activity assayed in fibroblasts transfected with sham irradiated plasmid.

[3] = system: p53, PCNA and the XPA protein; assay: Western blot of DNA repair proteins in keratinocytes; type: cell-based, human; conditions: within 2 days of treatment
Method: Cells were treated with 100 μM pTpT or an equal volume of diluent alone for 48 hours. Total cellular proteins were collected in a buffer consisting of 0.25 M Tris HCl (pH 7.5), 0.375 M NaCl, 2.5% sodium deoxycholate, 1% Triton X-100, 25 mM MgCl2, 1 mM phenylmethyl sulfonyl fluoride, and 0.1 mg ml aprotinin. Proteins (100 μg per sample) were separated by 7.5–15% SDS-PAGE and transferred to a nitrocellulose membrane (Schleicher & Schuell, Keene, N. H.). After transfer, the gel was stained with Coomassie Blue to verify even loading as visualized by the residual high molecular weight proteins. Membranes were blocked in 0.05% Tween-20/PBS with 5% milk, (Bio-Rad Laboratories, Hercules, Calif.). Antibody reactions were performed with the following antibodies: anti p53 (AB-6), anti PCNA (Ab-2) (Oncogene Science), and anti XPA (FL-273) (Santa Cruz Biotechnology). Sheep anti-mouse Ig linked to horseradish peroxidase (Amersham, Arlington Heights, Ill.) (for p53 and PCNA) and goat anti-rabbit IgG (Bio-Rad)(for XPA) were used as the secondary antibodies. Binding was detected by the ECL detection kit (Amersham).
Western blot analysis was used to examine the effect of pTpT treatment on the expression of selected genes known to be involved in DNA repair.

| Substance | proliferation compared to diluent-treated NBS cells (NBS fibroblasts) | increase in the number of S-phase cells compared to diluent (NBS fibroblasts; 48 hours, not statistically significant (p<0.08)) | cell growth rate [1] | enhanced repair of singlet oxygen-induced DNA damage ([2]; 10 mJ/cm^2) | enhanced repair of singlet oxygen-induced DNA damage ([2]; 20 mJ/cm^2) | up-regulation of levels of p53, PCNA and XPA protein [3] |
| --- | --- | --- | --- | --- | --- | --- |
| pGTTAGGGTTAG (DNA {P}-dGdTdTdAdGdGdGdTdTdAdG) [SEQ ID NO: 5] | minimally affected | 8% |  |  |  |  |
| thymidine dinucleotide [pTpT] |  |  | marked decreases in cell growth rate | 179% | 228% | 2 to 3 fold |
